Results: patent US12122761B2, “2-azaspiro[3.4]octane derivatives as M4 agonists” (NOVARTIS AG, priority 2019, dated 2024)

Tests used:
Type in all cases: cell-based
[1] = molecular target: T1, human cloned CHRM5 receptor (M5_CHO) (Homo sapiens, UniProt P08912); assay: CHRM5 Ca++ Flux Assay (agonist mode, FDSS 7000EX); conditions: for M5 FDSS PA / Emax: Percent Activity measured to EC100 of Carbachol; for EC50: agonist mode, geometric mean if tested more than once, read-out: M5 FDSS EC50; for Emax: read-out: M5 FDSS PA
T1 construct: expressed in transfected cells; host or cells: CHO (M5_CHO)
T1 sequence (P08912 1-532): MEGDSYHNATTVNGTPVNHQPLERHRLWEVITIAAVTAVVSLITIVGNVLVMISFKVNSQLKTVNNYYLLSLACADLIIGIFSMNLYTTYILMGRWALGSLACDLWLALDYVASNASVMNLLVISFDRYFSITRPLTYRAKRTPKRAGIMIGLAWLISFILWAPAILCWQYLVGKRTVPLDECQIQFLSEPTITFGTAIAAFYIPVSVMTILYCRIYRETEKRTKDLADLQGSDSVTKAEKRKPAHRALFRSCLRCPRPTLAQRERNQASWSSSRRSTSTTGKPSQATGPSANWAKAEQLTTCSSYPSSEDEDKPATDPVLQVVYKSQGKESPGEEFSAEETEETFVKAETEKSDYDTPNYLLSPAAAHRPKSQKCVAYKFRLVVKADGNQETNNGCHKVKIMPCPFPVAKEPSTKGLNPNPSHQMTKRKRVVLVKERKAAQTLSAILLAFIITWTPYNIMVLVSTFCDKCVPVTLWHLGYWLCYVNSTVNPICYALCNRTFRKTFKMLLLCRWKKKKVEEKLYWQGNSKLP
Summary of the method: (§1)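 Agonist responses are measured as calcium mobilization in CHO-K1 cells expressing human M3 or M5, tested over an 11-point dose range in triplicate. Percent activity is normalised to carbachol at EC100.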

[2] = molecular target: T2, human cloned CHRM3 receptor (M3_CHO cells) (Homo sapiens, UniProt P20309); assay: CHRM3 Ca++ Flux Assay (agonist mode, FDSS 7000EX); conditions: for M3 FDSS PA / Emax: Percent Activity measured to EC100 of Carbachol; for EC50: agonist mode, geometric mean if tested more than once, read-out: M3 FDSS EC50; for Emax: read-out: M3 FDSS PA
T2 construct: expressed in transfected cells; host or cells: CHO-K1
Summary of the method: as §1

[3] = molecular target: T3, human cloned CHRM2 receptor (M2_CHO cells) (Homo sapiens, UniProt P08172); assay: CHRM2 Ca++ Flux Assay (agonist mode, FDSS 7000EX); conditions: for M2 FDSS PA / Emax: Percent Activity measured to EC100 of Carbachol; for EC50: agonist mode, geometric mean if tested more than once, read-out: M2 FDSS EC50; for Emax: read-out: M2 FDSS PA
T3 construct: expressed in transfected cells; host or cells: CHO-K1
T3 sequence (P08172 1-466): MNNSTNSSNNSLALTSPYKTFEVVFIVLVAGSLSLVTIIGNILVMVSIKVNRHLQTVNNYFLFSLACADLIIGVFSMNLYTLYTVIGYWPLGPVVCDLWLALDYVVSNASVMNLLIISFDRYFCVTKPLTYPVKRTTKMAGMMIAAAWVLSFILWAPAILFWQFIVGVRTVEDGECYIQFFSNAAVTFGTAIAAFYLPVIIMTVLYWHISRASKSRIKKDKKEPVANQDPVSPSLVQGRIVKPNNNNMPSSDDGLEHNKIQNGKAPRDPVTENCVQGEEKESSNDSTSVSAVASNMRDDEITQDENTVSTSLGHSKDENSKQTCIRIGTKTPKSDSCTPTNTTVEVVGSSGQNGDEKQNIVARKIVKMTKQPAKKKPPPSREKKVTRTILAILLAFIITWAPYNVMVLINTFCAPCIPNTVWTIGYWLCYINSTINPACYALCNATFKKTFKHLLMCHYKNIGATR
Summary of the method: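 Response expressed as percent activity versus the Carbachol EC100, with curves fitted by four-parameter non-linear regression of triplicates. Stable M2_CHO cells were Ca++ dye-loaded and preincubated 60 min at room temperature in assay buffer containing 20 μM ATP; signal imaged for 3 minutes after compound.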

T2 sequence (P20309 whole entry): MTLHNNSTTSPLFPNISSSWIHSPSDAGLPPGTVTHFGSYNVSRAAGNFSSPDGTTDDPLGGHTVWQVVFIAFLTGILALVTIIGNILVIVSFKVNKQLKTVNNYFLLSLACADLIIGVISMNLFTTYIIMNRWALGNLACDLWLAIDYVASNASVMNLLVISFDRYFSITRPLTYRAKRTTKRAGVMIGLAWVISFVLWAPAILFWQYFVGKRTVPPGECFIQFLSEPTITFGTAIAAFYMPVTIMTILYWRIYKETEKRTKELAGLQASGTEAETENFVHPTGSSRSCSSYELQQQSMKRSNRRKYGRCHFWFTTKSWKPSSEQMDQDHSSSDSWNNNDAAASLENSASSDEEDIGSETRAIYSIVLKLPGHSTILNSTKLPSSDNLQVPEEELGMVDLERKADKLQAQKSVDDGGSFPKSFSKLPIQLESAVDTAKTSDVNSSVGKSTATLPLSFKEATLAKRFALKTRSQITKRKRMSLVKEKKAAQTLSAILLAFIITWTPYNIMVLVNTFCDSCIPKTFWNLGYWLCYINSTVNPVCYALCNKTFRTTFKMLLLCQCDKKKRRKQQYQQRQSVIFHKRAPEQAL

SMILES | M5 FDSS PA [1] [%] | EC50 [1] [µM] | M3 FDSS PA [2] [%] | EC50 [2] [µM] | M2 FDSS PA [3] [%] | EC50 [3] [µM] | Emax [1] [%] | Emax [2] [%] | Emax [3] [%]
FC(F)(F)Oc1ccccc1C1CCN([C@@H]2CCC3(C2)CN(c2ncco2)C3)CC1 (single isomer, unassigned) [Example 10L, (R)-2-(6-(4-(2-(trifluoromethoxy)phenyl)piperidin-1-yl)-2-azaspiro[3.4]octan-2-yl)oxazole or (S)-2-(6-(4-(2-(trifluoromethoxy)phenyl)piperidin-1-yl)-2-azaspiro[3.4]octan-2-yl)oxazole] | 2 | > 25 | 2 | 12.4 | 44 | 13.2 |  |  | 
FC(F)(F)Oc1ccccc1C1CCN([C@@H]2CCC3(C2)CN(c2nncs2)C3)CC1 (single isomer, unassigned) [Example 10M, (R)-2-(6-(4-(2-(trifluoromethoxy)phenyl)piperidin-1-yl)-2-azaspiro[3.4]octan-2-yl)-1,3,4-thiadiazole or (S)-2-(6-(4-(2-(trifluoromethoxy)phenyl)piperidin-1-yl)-2-azaspiro[3.4]octan-2-yl)-1,3,4-thiadiazole] | 0 | > 25 | 0 | > 25 | 0 | > 25 |  |  | 
FC(F)(F)Oc1ccccc1C1CCN([C@@H]2CCC3(C2)CN(c2nncs2)C3)CC1 (single isomer, unassigned) [Example 10N, (R)-2-(6-(4-(2-(trifluoromethoxy)phenyl)piperidin-1-yl)-2-azaspiro[3.4]octan-2-yl)-1,3,4-thiadiazole or (S)-2-(6-(4-(2-(trifluoromethoxy)phenyl)piperidin-1-yl)-2-azaspiro[3.4]octan-2-yl)-1,3,4-thiadiazole] | 0 | > 25 | 0 | > 25 | 28 |  |  |  | 
FC(F)Oc1ccccc1C1CCN([C@@H]2CCC3(C2)CN(c2nncs2)C3)CC1 (single isomer, unassigned) [Example 10O, (R)-2-(6-(4-(2-(difluoromethoxy)phenyl)piperidin-1-yl)-2-azaspiro[3.4]octan-2-yl)-1,3,4-thiadiazole or (S)-2-(6-(4-(2-(difluoromethoxy)phenyl)piperidin-1-yl)-2-azaspiro[3.4]octan-2-yl)-1,3,4-thiadiazole] | 0 | > 25 | 0 | > 25 | 17 |  |  |  | 
COc1ccccc1C1CCN([C@@H]2CCC3(C2)CN(c2ncns2)C3)CC1 (single isomer, unassigned) [Example 10Q, (R)-5-(6-(4-(2-methoxyphenyl)piperidin-1-yl)-2-azaspiro[3.4]octan-2-yl)-1,2,4-thiadiazole or (S)-5-(6-(4-(2-methoxyphenyl)piperidin-1-yl)-2-azaspiro[3.4]octan-2-yl)-1,2,4-thiadiazole] | 0 | > 25 | 0 | > 25 | 18 |  |  |  | 
COc1ccccc1C1CCN([C@@H]2CCC3(C2)CN(c2ncns2)C3)CC1 (single isomer, unassigned) [Example 10R, (R)-5-(6-(4-(2-methoxyphenyl)piperidin-1-yl)-2-azaspiro[3.4]octan-2-yl)-1,2,4-thiadiazole or (S)-5-(6-(4-(2-methoxyphenyl)piperidin-1-yl)-2-azaspiro[3.4]octan-2-yl)-1,2,4-thiadiazole] | 0 | > 25 | 0 | > 25 | 0 |  |  |  | 
O=C(N1CC2(CC[C@@H](N3CCC(c4cc(F)ccc4OC4CC5(COC5)C4)CC3)C2)C1)C1(F)CC1 (single isomer, unassigned) [Example 11A, (R)-(6-(4-(2-((2-oxaspiro[3.3]heptan-6-yl)oxy)-5-fluorophenyl)piperidin-1-yl)-2-azaspiro[3.4]octan-2-yl)(1-fluorocyclopropyl)methanone or (S)-(6-(4-(2-((2-oxaspiro[3.3]heptan-6-yl)oxy)-5-fluorophenyl)piperidin-1-yl)-2-azaspiro[3.4]octan-2-yl)(1-fluorocyclopropyl)methanone] | 0 | > 25 | 0 | > 25 | 0 |  |  |  | 
O=C(N1CC2(CC[C@@H](N3CCC(c4cc(F)ccc4OC4CC5(COC5)C4)CC3)C2)C1)C1(F)CC1 (single isomer, unassigned) [Example 11B, (R)-(6-(4-(2-((2-oxaspiro[3.3]heptan-6-yl)oxy)-5-fluorophenyl)piperidin-1-yl)-2-azaspiro[3.4]octan-2-yl)(1-fluorocyclopropyl)methanone or (S)-(6-(4-(2-((2-oxaspiro[3.3]heptan-6-yl)oxy)-5-fluorophenyl)piperidin-1-yl)-2-azaspiro[3.4]octan-2-yl)(1-fluorocyclopropyl)methanone] | 0 | > 25 | 0 | > 25 | 0 |  |  |  | 
O=C(N1CC2(CC[C@@H](N3CCC(c4ccccc4OC4CC5(COC5)C4)CC3)C2)C1)C1(F)CC1 (single isomer, unassigned) [Example 11C, (R)-(6-(4-(2-((2-oxaspiro[3.3]heptan-6-yl)oxy)phenyl)piperidin-1-yl)-2-azaspiro[3.4]octan-2-yl)(1-fluorocyclopropyl)methanone or (S)-(6-(4-(2-((2-oxaspiro[3.3]heptan-6-yl)oxy)phenyl)piperidin-1-yl)-2-azaspiro[3.4]octan-2-yl)(1-fluorocyclopropyl)methanone] | 0 | > 25 | −1 | > 25 | 0 |  |  |  | 
O=C(N1CC2(CC[C@@H](N3CCC(c4ccccc4OC4CC5(COC5)C4)CC3)C2)C1)C1(F)CC1 (single isomer, unassigned) [Example 11D, (R)-(6-(4-(2-((2-oxaspiro[3.3]heptan-6-yl)oxy)phenyl)piperidin-1-yl)-2-azaspiro[3.4]octan-2-yl)(1-fluorocyclopropyl)methanone or (S)-(6-(4-(2-((2-oxaspiro[3.3]heptan-6-yl)oxy)phenyl)piperidin-1-yl)-2-azaspiro[3.4]octan-2-yl)(1-fluorocyclopropyl)methanone] | 0 | > 25 | 0 | > 25 | 0 |  |  |  | 
Fc1ccc(OC2CC3(COC3)C2)c(C2CCN([C@@H]3CCC4(C3)CN(c3nnco3)C4)CC2)c1 [Example 1B, (R)-2-(6-(4-(2-((2-oxaspiro[3.3]heptan-6-yl)oxy)-5-fluorophenyl)piperidin-1-yl)-2-azaspiro[3.4]octan-2-yl)-1,3,4-oxadiazole] |  | > 25 |  | > 25 |  |  | 0 | 0 | 0
c1ccc(C2CCN([C@@H]3CCC4(C3)CN(c3nnco3)C4)CC2)c(OC[C@H]2COCCO2)c1 [Example 1C, 2-((R)-6-(4-(2-(((R)-1,4-dioxan-2-yl)methoxy)phenyl)piperidin-1-yl)-2-azaspiro[3.4]octan-2-yl)-1,3,4-oxadiazole] |  | > 25 |  | > 25 |  | 0.017 | 0 | 0 | 15
Cc1coc(N2CC3(CC[C@@H](N4CCC(c5ccc(F)cc5OCC(C)(C)O)CC4)C3)C2)n1 [Example 3N, (R)-1-(5-fluoro-2-(1-(2-(4-methyloxazol-2-yl)-2-azaspiro[3.4]octan-6-yl)piperidin-4-yl)phenoxy)-2-methylpropan-2-ol] |  | > 25 |  | > 25 |  |  | 0 | 0 | 0
